Data as given in patent EP0168965B1, “4(5)-substituted imidazoles” (ELI LILLY AND COMPANY, priority 1984, dated 1986).

What was measured:
[1] = target: T1, aromatase (Rattus norvegicus, UniProt P22443); assay: Aromatase inhibition in the rat ovarian microsome assay; format: biochemical; settings: read-out: EC50 (the source's name)
T1 construct: ovarian microsomes are obtained from rats treated with pregnant mares serum gonadotropin; from tissue; host or cells: rat ovarian microsomes (rats treated with pregnant mares serum gonadotropin)
T1 sequence (P22443 1-508): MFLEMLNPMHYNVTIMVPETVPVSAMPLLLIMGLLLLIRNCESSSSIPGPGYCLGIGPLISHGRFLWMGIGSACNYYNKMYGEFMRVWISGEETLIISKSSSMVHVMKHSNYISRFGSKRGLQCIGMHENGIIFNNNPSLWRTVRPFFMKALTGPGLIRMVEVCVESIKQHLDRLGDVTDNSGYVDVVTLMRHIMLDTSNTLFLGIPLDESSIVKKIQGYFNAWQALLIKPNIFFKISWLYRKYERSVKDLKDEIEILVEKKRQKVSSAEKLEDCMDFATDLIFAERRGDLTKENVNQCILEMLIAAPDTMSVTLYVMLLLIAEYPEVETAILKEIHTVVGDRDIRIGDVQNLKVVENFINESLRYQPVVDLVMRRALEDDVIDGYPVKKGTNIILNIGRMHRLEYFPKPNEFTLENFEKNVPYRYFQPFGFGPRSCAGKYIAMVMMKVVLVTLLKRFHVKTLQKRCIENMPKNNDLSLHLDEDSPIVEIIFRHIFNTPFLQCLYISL
Experimental: In this test system, ovarian microsomes are obtained from rats treated with pregnant mares serum gonadotropin. Test compounds are added to reaction vials containing 0.1 µM 4-androstene-3,17-dione, 100,000 dpm 1,2[^3H]-androstenedione, the microsomes and a NADPH generating system. The concentrations of the inhibitors tested ranged between 0.005 and 10 um.

[2] = system: synthesis of estrogens; assay: Estrogen synthesis inhibition in rats (uterine weight and ovarian steroid concentrations); format: in vivo, Immature female Wistar rats; settings: for Mean Steroid Concentration estradiol / Mean Steroid Concentration estriol / Mean Steroid Concentration estrone: ovaries
Experimental: Immature female Wistar rats (45-55 grams) were divided into control and test groups of 4-5 animals each. Test compounds were administered for seven days daily by gavage in corn oil. Control animals received corn oil without the test compound. Beginning on the fourth day of the test, all animals treated with the test compound and one half of the control animals were given a subcutaneous injection of 1.0 mg of testosterone propionate in corn oil. The remaining control animals received only an equivalent volume of corn oil. On the seventh day of the test, rats treated with testosterone propionate were injected subcutaneously with 100 µCi of [^3H]-testosterone in 50 pl of 3:1 (v/v) saline-ethanol.
After two hours, the animals were killed by decapitation. Uteri were isolated, trimmed of extraneous connective tissue, and weighed. […] In the control animals treated with testosterone propionate, estrogens produced by aromatization stimulated the uterus resulting in an increase in weight.
Ovaries from rats treated with [^3H]-testosterone were excised, cleaned of extraneous tissue, and homogenized in 2.5 ml of a 1.0 mM potassium phosphate buffer containing 3.0 mM MgC12-6H20, 320 mM sucrose, and 0.25% Triton X-100 (polyethylene glycol p-isooctyl phenyl ether, Rohm and Haas) at pH 6.5. The ovarian steroids were extracted with 1.5 ml of 9:1 (v/v) toluene/ethanol to which had been added 25 to 100 mcg each of unlabelled estradiol, estriol, and estrone, and approximately 1000 dpm of [^14C]-estradiol. The samples were vortexed, centrifuged at 500 x g for 10 minutes, and the organic phase was transferred to a conical vial. Two additional extractions were performed on the residue in the same way. The pooled organic extracts were evaporated for subsequent thin-layer chromatography.
Ovarian proteins were precipitated by the addition of 5.0 ml of ethanol to the remaining aqueous phase. After an overnight incubation at 4°C, the samples were centrifuged at 1500 x g for 10 minutes. The supernatant was discarded and the pellet was dissolved in 0.3 N potassium hydroxide. Protein was determined according to the method of Bradford, Analytical Biochemistry, 72, 248 (1976).
The organic residue from each above extraction was redissolved in 9:1 (v/v) dichioromethane/ methanol. The solution of each sample was applied to separate silica gel thin layer chromatography plates which contained a fluorescent indicator. The plates were developed in the first dimension with 160:38:1.5:0.5 (v/v/v/v) dichloromethane/ethyl acetate/methanol/acetic acid to within 3 cm of the top of the plate. After air-drying, the plate was developed in the second dimension with 180:19:1 (v/v/v) dichloromethane/methanol/ammonium hydroxide. The plate was air-dried and viewed under 254 nm UV light.
The visible spots were marked and the plates were sprayed with primulin (0.001% in 4:1 v/v acetone/ water) according to the method of Wright, J. Chromatography, '59, 220 (1971) which allowed for the identification of additional steroids under 365 nm UV light. The spots were scraped from the plate using a glass wool plugged Pasteur pipet attached to a vacuum line. The steroids were eluted directly into scintillation vials by the addition of 0.2 ml of dichloromethane followed by two washes each of 2.0 ml of methanol. The organic solvent was evaporated and 10.0 ml of scintillation fluid (Beckman Ready Solv-NA) was added to the vials. Samples were analyzed by liquid scintillation spectrometry. Corrections were made based on the recoveries of the [^14C]-steroid. Steroid concentrations are expressed as femtomoles per milligram protein.

[3] = 1 mg/kg p.o. by gavage daily for seven days
[4] = 3 mg/kg p.o. by gavage daily for seven days
[5] = 10 mg/kg p.o. by gavage daily for seven days
[6] = 30 mg/kg p.o. by gavage daily for seven days
[7] = 100 mg/kg p.o. by gavage daily for seven days

Fc1ccc(C(c2ccc(F)cc2)c2c[nH]cn2)cc1 [Example 1, 4(5)-[Bis(4-fluorophenyl)methyl]-1H-imidazole]
IC50 [1]: < 50 nM

Fc1ccc(C(c2ccc(Cl)cc2)c2c[nH]cn2)cc1 (stereo not shown) [Example 2, 4(5)-[(4-Chlorophenyl)(4-fluorophenyl)methyl]imidazole]
IC50 [1]: < 50 nM

OC(c1ccc(Cl)cc1)(c1ccc(Cl)cc1)c1c[nH]cn1 [Example 3, a,a-bis(4-chlorophenyl)-4(5)-imidazolemethanol]
Mean Steroid Concentration estradiol [2, 3]: 0.35 femtomoles per milligram of protein
Mean Steroid Concentration estriol [2, 3]: 0.132 femtomoles per milligram of protein
Mean Steroid Concentration estrone [2, 3]: 0.00 femtomoles per milligram of protein
Mean Uterine Weight ([2]; 1 mg/kg p.o. by gavage daily for seven days, testosterone propionate-treated rats): 214.2 mg
Mean Steroid Concentration estradiol [2, 4]: 0.31 femtomoles per milligram of protein
Mean Steroid Concentration estriol [2, 4]: 0.383 femtomoles per milligram of protein
Mean Steroid Concentration estrone [2, 4]: 0.05 femtomoles per milligram of protein
Mean Uterine Weight (mg) ([2]; 3 mg/kg p.o. by gavage daily for seven days, testosterone propionate-treated rats): 158.8^+ mg
Mean Steroid Concentration estradiol [2, 5]: 0.19^+ femtomoles per milligram of protein
Mean Steroid Concentration estriol [2, 5]: 0.218 femtomoles per milligram of protein
Mean Steroid Concentration estrone [2, 5]: 0.03 femtomoles per milligram of protein
Mean Uterine Weight (mg) ([2]; 10 mg/kg p.o. by gavage daily for seven days, testosterone propionate-treated rats): 131.2^+ mg
Mean Steroid Concentration estradiol [2, 6]: 0.22 femtomoles per milligram of protein
Mean Steroid Concentration estriol [2, 6]: 0.391 femtomoles per milligram of protein
Mean Steroid Concentration estrone [2, 6]: 0.07 femtomoles per milligram of protein
Mean Uterine Weight (mg) ([2]; 30 mg/kg p.o. by gavage daily for seven days, testosterone propionate-treated rats): 96.2^+ mg
Mean Steroid Concentration estradiol [2, 7]: 0.10^+ femtomoles per milligram of protein
Mean Steroid Concentration estriol [2, 7]: 0.534^+ femtomoles per milligram of protein
Mean Steroid Concentration estrone [2, 7]: 0.36^+ femtomoles per milligram of protein
Mean Uterine Weight (mg) ([2]; 100 mg/kg p.o. by gavage daily for seven days, testosterone propionate-treated rats): 79.5^+ mg
